According to PubChem BioAssay AID328 (DTP/NCI, 2004):
“And” between values parts separate entries of the source, which are not always exact repeats. Equal entries are not always repeated. Toxic doses and inconclusive results are not listed. The calls were made as follows: active = survival T/C of 150% or more; inactive = T/C below 125% in these data.

System: BDF1 mice, P388 leukemia ip, median survival T/C
Assay: NCI In Vivo Anticancer Drug Screen. Data for tumor model P388 Leukemia (intraperitoneal) in B6D2F1 (BDF1) mice
Settings: endpoint: median survival time, higher = longer survival
In short: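 Mice carrying the transplantable tumour receive compound or vehicle. Survival is followed in each arm, and the treated measure is divided by the vehicle measure.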

[1] = dose: 50.0 mg/kg/injection, schedule: Q01DX009 (ip), vehicle: saline with Tween-80
[2] = dose: 100.0 mg/kg/injection, schedule: Q01DX009 (ip), vehicle: saline with Tween-80
[3] = dose: 100.0 mg/kg/injection, schedule: Q01DX009 (ip), vehicle: Klucel (hydroxypropylcellulose) (HPC)
[4] = dose: 25.0 mg/kg/injection, schedule: Q01DX009 (ip), vehicle: saline
[5] = dose: 50.0 mg/kg/injection, schedule: Q01DX009 (ip), vehicle: saline
[6] = dose: 100.0 mg/kg/injection, schedule: Q04DX003 (ip), vehicle: saline with Tween-80
[7] = dose: 200.0 mg/kg/injection, schedule: Q04DX003 (ip), vehicle: saline with Tween-80
[8] = dose: 100.0 mg/kg/injection, schedule: Q04DX003 (ip), vehicle: Klucel (hydroxypropylcellulose) (HPC)
[9] = dose: 200.0 mg/kg/injection, schedule: Q04DX003 (ip), vehicle: Klucel (hydroxypropylcellulose) (HPC)
[10] = dose: 200.0 mg/kg/injection, schedule: Q01DX009 (ip), vehicle: saline with Tween-80
[11] = dose: 400.0 mg/kg/injection, schedule: Q01DX009 (ip), vehicle: saline with Tween-80

Measured: T/C

C/C=C1\C[N+]2(C)CCC34c5ccccc5NC32C(O)CC1C4(CO)C(=O)OC (stereo unspecified)
inactive: dose: 2.0 mg/kg/injection, schedule: Q01DX009 (ip), vehicle: saline with Tween-80 98 % of control | dose: 4.0 mg/kg/injection, schedule: Q01DX009 (ip), vehicle: saline with Tween-80 93 % of control | dose: 8.0 mg/kg/injection, schedule: Q01DX009 (ip), vehicle: saline with Tween-80 94 % of control

CCOc1ccn(CC(=O)c2ccc([N+](=O)[O-])o2)c(=O)n1
inactive: [1] 100 % of control | [2] 101 % of control

OCC1OC(n2cnc3c(NO)ncnc32)C(O)C1O (stereo unspecified)
inactive: dose: 12.5 mg/kg/injection, schedule: Q01DX009 (ip), vehicle: Klucel (hydroxypropylcellulose) (HPC) 108 % of control | [3] 108 % of control

CCOC(=O)c1c/c(=C(\C)O)c(=O)n2c1nc1ccccc12
inactive: dose: 100.0 mg/kg/injection, schedule: Q04DX002 (ip), vehicle: saline with Tween-80 100 % of control | dose: 200.0 mg/kg/injection, schedule: Q04DX002 (ip), vehicle: saline with Tween-80 87 % of control | dose: 400.0 mg/kg/injection, schedule: Q04DX002 (ip), vehicle: saline with Tween-80 103 % of control

CN(C)c1ccc2c(c1)Cc1cc(N=C3C=CC(=O)O3)ccc1-2
inactive: dose: 1.56 mg/kg/injection, schedule: Q01DX009 (ip), vehicle: Klucel (hydroxypropylcellulose) (HPC) 109 % of control | dose: 3.12 mg/kg/injection, schedule: Q01DX009 (ip), vehicle: Klucel (hydroxypropylcellulose) (HPC) 100 % of control | dose: 6.25 mg/kg/injection, schedule: Q01DX009 (ip), vehicle: Klucel (hydroxypropylcellulose) (HPC) 90 % of control | [4] 92 % of control | [5] 100 % of control

CC(NCCCSc1ccccc1)C(O)c1ccc(O)cc1 (stereo unspecified)
inactive: [1] 99 % of control and 100 % of control and 105 % of control | [2] 110 % of control and 114 % of control and 119 % of control

CCCCSc1ncnc2nc[nH]c12
inactive: [6] 104 % of control | [7] 100 % of control

Cc1cc(=O)[nH]c2c1CCCC2
inactive: dose: 37.5 mg/kg/injection, schedule: Q01DX009 (ip), vehicle: saline with Tween-80 92 % of control | dose: 75.0 mg/kg/injection, schedule: Q01DX009 (ip), vehicle: saline with Tween-80 99 % of control and 118 % of control | dose: 150.0 mg/kg/injection, schedule: Q01DX009 (ip), vehicle: saline with Tween-80 103 % of control | dose: 300.0 mg/kg/injection, schedule: Q01DX009 (ip), vehicle: saline with Tween-80 91 % of control

NC(=S)N/N=C\c1c[nH]c2nccnc12
inactive: dose: 25.0 mg/kg/injection, schedule: Q01DX009 (ip), vehicle: water 106 % of control | dose: 50.0 mg/kg/injection, schedule: Q01DX009 (ip), vehicle: water 92 % of control | dose: 100.0 mg/kg/injection, schedule: Q01DX009 (ip), vehicle: water 100 % of control | dose: 400.0 mg/kg/injection, schedule: Q01DX009 (ip), vehicle: water 86 % of control

NNCc1c(C(=O)O)oc2ccccc12
inactive: [1] 99 % of control | [2] 100 % of control

Cn1c(N)c(N=O)c(=O)n(C)c1=O
inactive: dose: 3.12 mg/kg/injection, schedule: Q01DX009 (ip), vehicle: saline 109 % of control | dose: 6.25 mg/kg/injection, schedule: Q01DX009 (ip), vehicle: saline 100 % of control | dose: 12.5 mg/kg/injection, schedule: Q01DX009 (ip), vehicle: saline 100 % of control | dose: 25.0 mg/kg/injection, schedule: Q01DX009 (ip), vehicle: Klucel (hydroxypropylcellulose) (HPC) 95 % of control | dose: 50.0 mg/kg/injection, schedule: Q01DX009 (ip), vehicle: Klucel (hydroxypropylcellulose) (HPC) 90 % of control | dose: 100.0 mg/kg/injection, schedule: Q04DX003 (ip), vehicle: alcohol 109 % of control | dose: 125.0 mg/kg/injection, schedule: Q01DX010 (ip), vehicle: other 109 % of control | dose: 200.0 mg/kg/injection, schedule: Q04DX003 (ip), vehicle: alcohol 100 % of control | dose: 250.0 mg/kg/injection, schedule: Q01DX010 (ip), vehicle: other 86 % of control | dose: 400.0 mg/kg/injection, schedule: Q04DX003 (ip), vehicle: alcohol 100 % of control

O=C(Nc1nc(Cl)nc(Cl)n1)N1CCOCC1
inactive: dose: 6.25 mg/kg/injection, schedule: Q01DX009 (ip), vehicle: saline with Tween-80 104 % of control | dose: 9.0 mg/kg/injection, schedule: Q01DX009 (ip), vehicle: saline with Tween-80 103 % of control | dose: 12.0 mg/kg/injection, schedule: Q01DX009 (ip), vehicle: saline with Tween-80 112 % of control | dose: 12.5 mg/kg/injection, schedule: Q04DX003 (ip), vehicle: saline with Tween-80 118 % of control | dose: 18.0 mg/kg/injection, schedule: Q01DX009 (ip), vehicle: saline with Tween-80 112 % of control | dose: 25.0 mg/kg/injection, schedule: Q04DX003 (ip), vehicle: saline with Tween-80 109 % of control

CCOC(=O)/C=C\CBr
inactive: dose: 1.5 mg/kg/injection, schedule: Q01DX010 (ip), vehicle: saline 100 % of control | dose: 3.0 mg/kg/injection, schedule: Q01DX010 (ip), vehicle: saline 100 % of control | dose: 6.0 mg/kg/injection, schedule: Q01DX010 (ip), vehicle: saline 105 % of control | dose: 12.0 mg/kg/injection, schedule: Q01DX010 (ip), vehicle: saline 100 % of control and 115 % of control | dose: 24.0 mg/kg/injection, schedule: Q01DX010 (ip), vehicle: saline 100 % of control | dose: 48.0 mg/kg/injection, schedule: Q01DX010 (ip), vehicle: saline 120 % of control

CC(C)=CCNc1ncnc2c1ncn2C1OC(CO)C(O)C1O (stereo unspecified)
inactive: dose: 50.0 mg/kg/injection, schedule: Q04DX003 (ip), vehicle: Klucel (hydroxypropylcellulose) (HPC) 95 % of control | [8] 100 % of control | [6] 104 % of control | [9] 95 % of control | [7] 100 % of control

O=C(/C=C/c1cccc2ccccc12)c1ccc(Cl)cc1
inactive: [3] 109 % of control | [8] 104 % of control | dose: 200.0 mg/kg/injection, schedule: Q01DX009 (ip), vehicle: Klucel (hydroxypropylcellulose) (HPC) 95 % of control | [9] 104 % of control | dose: 400.0 mg/kg/injection, schedule: Q04DX003 (ip), vehicle: Klucel (hydroxypropylcellulose) (HPC) 95 % of control

CCN(CC)C(=O)c1ccc(C(Cl)(Cl)Cl)cc1
inactive: dose: 12.5 mg/kg/injection, schedule: Q01DX009 (ip), vehicle: saline with Tween-80 102 % of control | [1] 100 % of control and 109 % of control and 120 % of control | [2] 100 % of control (2×) and 104 % of control | [8] 100 % of control | dose: 176.0 mg/kg/injection, schedule: Q04DX003 (ip), vehicle: saline sonified 104 % of control | [10] 112 % of control | [9] 95 % of control | dose: 264.0 mg/kg/injection, schedule: Q04DX003 (ip), vehicle: saline sonified 104 % of control | [11] 109 % of control

Cc1nc2ccc(O)cc2cc1CO
inactive: [4] 95 % of control | [5] 100 % of control | dose: 100.0 mg/kg/injection, schedule: Q01DX009 (ip), vehicle: saline 99 % of control | dose: 200.0 mg/kg/injection, schedule: Q01DX009 (ip), vehicle: saline 109 % of control | dose: 400.0 mg/kg/injection, schedule: Q01DX009 (ip), vehicle: saline 111 % of control

COc1ccc(CCNC(=O)Cc2ccccc2)cc1OC
inactive: [2] 95 % of control | [6] 109 % of control | [10] 90 % of control | [7] 100 % of control | [11] 100 % of control | dose: 400.0 mg/kg/injection, schedule: Q04DX003 (ip), vehicle: saline with Tween-80 100 % of control
